SMILES strings stand for the structures.

In the first experiment the target is T1, Interstitial collagenase (Homo sapiens, UniProt P03956).
T1 sequence (P03956 whole entry): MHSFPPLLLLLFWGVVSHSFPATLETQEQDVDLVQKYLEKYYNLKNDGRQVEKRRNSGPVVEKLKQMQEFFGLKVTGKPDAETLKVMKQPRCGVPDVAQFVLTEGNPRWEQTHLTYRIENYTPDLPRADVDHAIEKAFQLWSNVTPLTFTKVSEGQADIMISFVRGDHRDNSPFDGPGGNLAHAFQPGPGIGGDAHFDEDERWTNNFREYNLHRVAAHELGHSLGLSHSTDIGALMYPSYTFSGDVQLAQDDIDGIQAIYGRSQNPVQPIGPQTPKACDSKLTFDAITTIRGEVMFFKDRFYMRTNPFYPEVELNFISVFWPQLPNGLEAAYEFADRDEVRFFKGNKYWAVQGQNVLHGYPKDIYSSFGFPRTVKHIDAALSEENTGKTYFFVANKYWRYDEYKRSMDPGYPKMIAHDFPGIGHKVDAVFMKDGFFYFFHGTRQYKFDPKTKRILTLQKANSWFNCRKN
Particulars: read-out: log(1/IC50) (converted).
Regarding `CC(C(=O)NO)N(Cc1ccc([N+](=O)[O-])cc1)S(=O)(=O)c1c(F)c(F)c(F)c(F)c1F` (stereo not given), the IC50 was 3.98 nM.

Take `CNC(=O)[C@@H](Cc1ccc(OC)cc1)NC(=O)C(CC(C)C)CP(=O)(O)Cc1ccc(S(=O)(=O)c2ccccc2)cc1` (stereo not given in full): the IC50 was 1700 nM.

For the compound `CNC(=O)[C@@H](Cc1ccc(OC)cc1)NC(=O)C(CC(C)C)CP(=O)(O)Cc1ccc(Cc2ccccc2)cc1` (stereo not given in full), the IC50 is 269 nM.

For the compound `CNC(=O)[C@@H](Cc1ccc(OC)cc1)NC(=O)C(CC(C)C)CP(=O)(O)Cc1ccccc1-c1ccccc1` (stereo not given in full), the IC50 was 11000 nM.

On to `CNC(=O)[C@@H](NC(=O)C(CCC1CCCCC1)CP(=O)(O)Cc1ccc(Cc2ccccc2)cc1)C(C)(C)C` (stereo not given in full), for which the IC50 was 19100 nM.

Regarding `CNC(=O)[C@@H](Cc1ccc(OC)cc1)NC(=O)C(CC(C)C)CP(=O)(O)Cc1ccc(-c2ccccc2)cc1` (stereo not given in full), the IC50 is 2190 nM.

For the compound `CNC(=O)[C@@H](Cc1ccc(OC)cc1)NC(=O)C(CC(C)C)CP(=O)(O)Cc1ccc(CC(C)C)cc1` (stereo not given in full), the IC50 was 4470 nM.

As to `C[C@@]1(O)CCCN(S(=O)(=O)c2ccc(OCc3ccccc3C#N)cc2)C1C(=O)NO` (stereo not given in full), the IC50 is 2690 nM.

On to `Cc1c(F)cccc1COc1ccc(S(=O)(=O)N2CCC[C@@](C)(O)C2C(=O)NO)cc1` (stereo not given in full), for which the IC50 is 1290 nM.

As to `C[C@@]1(O)CCCN(S(=O)(=O)c2ccc(OCc3ccccc3F)cc2)C1C(=O)NO` (stereo not given in full), the IC50 was 182 nM.

On to `C[C@@]1(O)CCCN(S(=O)(=O)c2ccc(OCc3cccc(F)c3)cc2)C1C(=O)NO` (stereo not given in full), for which the IC50 was 339 nM.

For the compound `C[C@@]1(O)CCCN(S(=O)(=O)c2ccc(OCc3ccc(F)cc3)cc2)C1C(=O)NO` (stereo not given in full), the IC50 is 417 nM.

`Cc1ccccc1COc1ccc(S(=O)(=O)N2CCC[C@@](C)(O)C2C(=O)NO)cc1` (stereo not given in full): the IC50 is 309 nM.

In the case of `CC(N)P(=O)(O)CC(CCCc1ccccc1)C(=O)NC(Cc1c[nH]c2ccccc12)C(N)=O` (stereo not given), the IC50 is 30.9 nM.

Turning to `CNC(=O)[C@@H](Cc1ccc(OC)cc1)NC(=O)C(CC(C)C)CP(=O)(O)Cc1cccc(-c2ccccc2)c1` (stereo not given in full), the IC50 is 5130 nM.

As for `C[C@@]1(O)CCCN(S(=O)(=O)c2ccc(OCc3ccc(F)cc3Cl)cc2)C1C(=O)NO` (stereo not given in full), the IC50 was 309 nM.

Regarding `C[C@@]1(O)CCCN(S(=O)(=O)c2ccc(OCc3ccc(Cl)cc3F)cc2)C1C(=O)NO` (stereo not given in full), the IC50 is 120 nM.

In the case of `C[C@@]1(O)CCCN(S(=O)(=O)c2ccc(OCc3ccnc(Cl)c3)cc2)C1C(=O)NO` (stereo not given in full), the IC50 was 525 nM.

For `Cc1ncccc1COc1ccc(S(=O)(=O)N2CCC[C@@](C)(O)C2C(=O)NO)cc1` (stereo not given in full), the IC50 was 1580 nM.

With `C[C@@]1(O)CCCN(S(=O)(=O)c2ccc(OCc3ccnc4ccccc34)cc2)C1C(=O)NO` (stereo not given in full), the IC50 is 120 nM.

For `CNC(=O)[C@@H](NC(=O)C(CC(C)C)CP(=O)(O)Cc1ccc(Cc2ccccc2)cc1)C(C)(C)C` (stereo not given in full), the IC50 was 60.3 nM.

Take `CNC(=O)[C@@H](NC(=O)C(CCC(F)(F)F)CP(=O)(O)Cc1ccc(Cc2ccccc2)cc1)C(C)(C)C` (stereo not given in full): the IC50 is 44.7 nM.

Take `CNC(=O)[C@@H](NC(=O)C(CC1CC1)CP(=O)(O)Cc1ccc(Cc2ccccc2)cc1)C(C)(C)C` (stereo not given in full): the IC50 was 200 nM.

In the case of `CNC(=O)[C@@H](NC(=O)C(CC1CCC1)CP(=O)(O)Cc1ccc(Cc2ccccc2)cc1)C(C)(C)C` (stereo not given in full), the IC50 was 178 nM.

Take `CNC(=O)[C@@H](NC(=O)C(CC1CCCCC1)CP(=O)(O)Cc1ccc(Cc2ccccc2)cc1)C(C)(C)C` (stereo not given in full): the IC50 was 1820 nM.

On to `CNC(=O)[C@@H](NC(=O)C(CCc1ccccc1)CP(=O)(O)Cc1ccc(Cc2ccccc2)cc1)C(C)(C)C` (stereo not given in full), for which the IC50 is 692 nM.

For `O=C(CN(Cc1ccc([N+](=O)[O-])cc1)S(=O)(=O)c1c(F)c(F)c(F)c(F)c1F)NO`, the IC50 was 3.02 nM.

`CC(C)CC(C(=O)NO)N(Cc1ccccc1)S(=O)(=O)c1c(F)c(F)c(F)c(F)c1F` (stereo not given): the IC50 was 6.03 nM.

For the compound `CC(N)P(=O)(O)CC(CSCc1ccccc1)C(=O)NC(Cc1c[nH]c2ccccc12)C(N)=O` (stereo not given), the IC50 is 14.1 nM.

Consider `CNC(=O)[C@@H](Cc1ccc(OC)cc1)NC(=O)C(CC(C)C)CP(=O)(O)Cc1cccc(CCc2ccccc2)c1` (stereo not given in full), for which the IC50 was 7410 nM.

With `C[C@@]1(O)CCCN(S(=O)(=O)c2ccc(OCc3cncc4ccccc34)cc2)C1C(=O)NO` (stereo not given in full), the IC50 is 7760 nM.

Take `CNC(=O)[C@@H](Cc1ccc(OC)cc1)NC(=O)C(CC(C)C)CP(=O)(O)Cc1ccc(CC2CCCCC2)cc1` (stereo not given in full): the IC50 is 1910 nM.

Consider `C[C@@]1(O)CCCN(S(=O)(=O)c2ccc(OCc3ccncc3)cc2)C1C(=O)NO` (stereo not given in full), for which the IC50 was 191 nM.

Turning to `C[C@@]1(O)CCCN(S(=O)(=O)c2ccc(OCc3cccc(Cl)c3)cc2)C1C(=O)NO` (stereo not given in full), the IC50 is 851 nM.

Regarding `CNC(=O)[C@@H](Cc1ccc(OC)cc1)NC(=O)C(CC(C)C)CP(=O)(O)Cc1ccccc1` (stereo not given in full), the IC50 was 15100 nM.

As for `CC(N)P(=O)(O)CC(Cc1ccccc1)C(=O)NC(Cc1c[nH]c2ccccc12)C(N)=O` (stereo not given), the IC50 is 251 nM.

For `CCCC(CP(=O)(O)Cc1ccc(Cc2ccccc2)cc1)C(=O)N[C@H](C(=O)NC)C(C)(C)C` (stereo not given in full), the IC50 was 339 nM.

As to `CNC(=O)[C@@H](NC(=O)C(CCC(C)C)CP(=O)(O)Cc1ccc(Cc2ccccc2)cc1)C(C)(C)C` (stereo not given in full), the IC50 is 3470 nM.

Consider `CNC(=O)[C@@H](Cc1ccc(OC)cc1)NC(=O)C(CC(C)C)CP(=O)(O)Cc1ccc(Oc2ccccc2)cc1` (stereo not given in full), for which the IC50 was 2820 nM.

Take `CC(N)P(=O)(O)CC(COCc1ccccc1)C(=O)NC(Cc1c[nH]c2ccccc12)C(N)=O` (stereo not given): the IC50 is 251 nM.

As for `CC(N)P(=O)(O)CC(CCc1ccccc1)C(=O)NC(Cc1c[nH]c2ccccc12)C(N)=O` (stereo not given), the IC50 was 79.4 nM.

On to `COc1ccccc1COc1ccc(S(=O)(=O)N2CCC[C@@](C)(O)C2C(=O)NO)cc1` (stereo not given in full), for which the IC50 is 2570 nM.

`C[C@@]1(O)CCCN(S(=O)(=O)c2ccc(OC[n+]3ccncc3)cc2)C1C(=O)NO` (stereo not given in full): the IC50 was 1580 nM.

The next experiment addresses Matrix metalloproteinase-14 (Homo sapiens, UniProt P50281).
Conditions: not given
As to `CCOCCC1(Oc2ccc(Oc3ccc(F)cc3)cc2)C(=O)NC(=O)NC1=O`, the IC50 is 22.9 nM.

Compound `CCOCCC1(Oc2ccc(Oc3ccccc3F)cc2)C(=O)NC(=O)NC1=O` showed an IC50 of 15.8 nM.

For the compound `CCOCCC1(Oc2ccc(Oc3ccc(Cl)cc3)cc2)C(=O)NC(=O)NC1=O`, the IC50 was 18.2 nM.

The compound `CCOCCC1(Oc2ccc(Oc3cccc(Cl)c3)cc2)C(=O)NC(=O)NC1=O` had an IC50 of 120 nM.

Take `CCOCCC1(Oc2ccc(Oc3ccc(C)cc3)cc2)C(=O)NC(=O)NC1=O`: the IC50 was 22.9 nM.

Consider `CCOCCC1(Oc2ccc(Oc3cccc(C)c3)cc2)C(=O)NC(=O)NC1=O`, for which the IC50 is 50.1 nM.

In turn, `CCOCCC1(Oc2ccc(Oc3ccccc3C)cc2)C(=O)NC(=O)NC1=O` yielded an IC50 of 70.8 nM.

On to `CCOCCC1(Oc2ccc(Oc3ccc(C(F)(F)F)cc3)cc2)C(=O)NC(=O)NC1=O`, for which the IC50 was 151 nM.

Regarding `CCOCCC1(Oc2ccc(Oc3ccc(C(C)(C)C)cc3)cc2)C(=O)NC(=O)NC1=O`, the IC50 is 6760 nM.

The compound `CCOCCC1(Oc2ccc(Oc3ccc(OC)cc3)cc2)C(=O)NC(=O)NC1=O` had an IC50 of 219 nM.

`CCOCCC1(Oc2ccc(Oc3ccc(S(C)(=O)=O)cc3)cc2)C(=O)NC(=O)NC1=O` had an IC50 of 8710 nM.

For `CCOCCC1(Oc2ccc(Oc3ccc(C#N)cc3)cc2)C(=O)NC(=O)NC1=O`, the IC50 is 200 nM.

Consider `CCOCCC1(Oc2ccc(Oc3ccc(C(=O)NC)cc3)cc2)C(=O)NC(=O)NC1=O`, for which the IC50 is 646 nM.

Consider `CCOCCC1(Oc2ccc(Oc3ccccc3Cl)cc2)C(=O)NC(=O)NC1=O`, for which the IC50 is 513 nM.

For the compound `CCOCCC1(Oc2ccc(Oc3ccc(Br)cc3)cc2)C(=O)NC(=O)NC1=O`, the IC50 is 19.1 nM.

Regarding `CCOCCC1(Oc2ccc(Oc3ccc(-c4ccccc4)cc3)cc2)C(=O)NC(=O)NC1=O`, the IC50 was 36.3 nM.

Compound `CCOCCC1(Oc2ccc(Oc3ccc(C(N)=O)cc3)cc2)C(=O)NC(=O)NC1=O` came in with an IC50 of 617 nM.

`CCOCCC1(Oc2ccc(Oc3ccc(C(=O)N(C)C)cc3)cc2)C(=O)NC(=O)NC1=O` gave an IC50 of 9330 nM.

Take `CCOCCC1(Oc2ccc(Oc3cccc(F)c3)cc2)C(=O)NC(=O)NC1=O`: the IC50 was 60.3 nM.

The next experiment has as its target T2, Matrilysin (Homo sapiens, UniProt P09237).
T2 sequence (P09237 whole entry): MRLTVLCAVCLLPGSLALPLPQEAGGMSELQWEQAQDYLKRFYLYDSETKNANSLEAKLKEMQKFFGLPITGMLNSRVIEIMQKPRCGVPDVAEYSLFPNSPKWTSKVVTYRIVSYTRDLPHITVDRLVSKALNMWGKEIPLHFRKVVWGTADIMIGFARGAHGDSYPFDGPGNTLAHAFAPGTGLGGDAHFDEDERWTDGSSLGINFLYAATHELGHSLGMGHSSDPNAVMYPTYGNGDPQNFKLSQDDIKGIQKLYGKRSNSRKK
The conditions noted are these: read-out: log(1/IC50) (converted).
Take `COc1ccc(S(=O)(=O)N2CC(N3C(=O)CN(C)C3=O)C[C@@H]2C(=O)NO)cc1` (stereo not given in full): the IC50 is 1820 nM.

Take `CCCCOc1ccc(S(=O)(=O)N2CC(N3C(=O)NC(C)(C)C3=O)C[C@@H]2C(=O)NO)cc1` (stereo not given in full): the IC50 is 447 nM.

Turning to `C=CCN1CC(=O)N(C2C[C@H](C(=O)NO)N(S(=O)(=O)c3ccc(OCCC)cc3)C2)C1=O` (stereo not given in full), the IC50 is 2570 nM.

For `C=CCN1CC(=O)N(C2C[C@H](C(=O)NO)N(S(=O)(=O)c3ccc(OCCOC)cc3)C2)C1=O` (stereo not given in full), the IC50 is 11000 nM.

On to `CCCCOc1ccc(S(=O)(=O)N2CC(N3C(=O)CN(CCC)C3=O)C[C@@H]2C(=O)NO)cc1` (stereo not given in full), for which the IC50 was 1200 nM.

In the case of `CCCCOc1ccc(S(=O)(=O)N2CC(N3C(=O)NC(SC)C3=O)C[C@@H]2C(=O)NO)cc1` (stereo not given in full), the IC50 was 851 nM.

On to `CCCN1CC(=O)N(C2C[C@H](C(=O)NO)N(S(=O)(=O)c3ccc(OCCOC)cc3)C2)C1=O` (stereo not given in full), for which the IC50 is 11000 nM.

`C=CCN1CC(=O)N(C2C[C@H](C(=O)NO)N(S(=O)(=O)c3ccc(OCCCC)cc3)C2)C1=O` (stereo not given in full): the IC50 was 1000 nM.

The record behind these values is ChEMBL document CHEMBL1140610, “Matrix metalloproteinases (MMPs): chemical-biological functions and (Q)SARs” (Bioorg Med Chem, 2007).
